Laboratory results reported in US20190092792A1, “VINORELBINE MONOTARTRATE AND ITS PHARMACEUTICAL USE” (priority 2016, published 2019).
Read-outs that look alike come from different tables or passages of the source.

Key:
[1] = Thermostability of vinorelbine monotartrate solid forms at 5° C., 25° C. and 40° C. (degradation impurities by HPLC); format: physicochemical; settings: for Degradation products (%) 3,6-epoxy vinorelbine / Degradation products (%) Total / Degradation products (%) vinorelbine N-oxide: amorphous form, 40° C.
Procedure: (§1) The degradation impurities are determined after a specific amount of time of incubation by means of HPLC.
(§2) The term “degradation impurities”, as used herein, is to be understood such a sample of the relevant product is subjected to HPLC analysis and calculation of the content of impurities in Vinorelbine is performed according to the method described in European Pharmacopoeia 7.0.
The term “degradation”, as used herein, is to be understood to relate to the total amount of identified (e.g. 3,6-epoxy vinorelbine, 4-O-deacetylvinorelbine and vinorelbine N-oxide) and unidentified degradation products that form in a sample after a particular incubation period.
(§3) HPLC analysis and calculation of the content of impurities in Vinorelbine were performed according to the method described in European Pharmacopoeia 7.0.
Three further representative batches of crystalline vinorelbine monotartrate acetone solvate being produced according to Example 1 were analyzed for stability (i.e. batches no. 011213, no. 021213, and no. 010414). The samples were exposed to temperatures of 5° C. and 25° C. for three and six months, respectively. Batch no. 010414 was also exposed to a temperature of 40° C. (at 60%±2% relative humidity) for 15 days, 1 month, and two months, respectively.
Crystalline vinorelbine monotartrate hydrate being produced according to Example 5 were analyzed for stability. The samples were exposed to temperatures of 25° C. and 40° C. for three and six months, respectively.
In order to evaluate the thermostability and photostability of the compound the sample was exposed to a temperature of 40° C. for 2 weeks analyzed by HPLC.

[2] = xenon lamp 300-800 nm
Procedure: The term “photostability”, as used herein, is to be understood such that a sample of the product to be analyzed in a quantity of about 14 mg is placed in a 10 ml light glass volumetric flask and is exposed in a photo chamber to a xenon lamp (wave length 300-800 nm; fluence rate 250-765 W/m2). The amount of the known photo-degradation product 3,6-epoxy vinorelbine is determined after a specific amount of time of exposure by means of HPLC (High-performance liquid chromatography). The described photostability test procedure corresponds to the photostability determining method described in European Pharmacopoeia 7.0 using exposure time 2 hours.
Furthermore, a comparative photo-degradation analysis of crystalline vinorelbine monotartrate hydrate, according to the present invention and vinorelbine bitartrate was performed.
The samples (about 14 mg each) were placed in 10 ml light glass volumetric flasks and exposed in a photo chamber to a xenon lamp (wave length 300-800 nm; fluence rate 250-765 W/m^2). The amount of the known photo-degradation product 3,6-epoxy vinorelbine was determined at various time points by means of HPLC.

[3] = Comparable stressing stability study at 60° C. (total degradation impurities by HPLC); format: physicochemical; settings: for Total degradation impurities: 60° C.
Procedure: as §1, §2, §3

| Compound | Photodegradation product (3,6-epoxy vinorelbine), % ([2]; exposure 0 min) [%] | Total impurities (excluding photodegradation product), % ([2]; exposure 0 min) [%] | Photodegradation product (3,6-epoxy vinorelbine), % ([2]; exposure 15 min) [%] | Total impurities (excluding photodegradation product), % ([2]; exposure 15 min) [%] | Photodegradation product (3,6-epoxy vinorelbine), % ([2]; exposure 30 min) [%] | Total impurities (excluding photodegradation product), % ([2]; exposure 30 min) [%] | Photodegradation product (3,6-epoxy vinorelbine), % ([2]; exposure 60 min) [%] | Total impurities (excluding photodegradation product), % ([2]; exposure 60 min) [%] | Photodegradation product (3,6-epoxy vinorelbine), % ([2]; exposure 120 min) [%] | Total impurities (excluding photodegradation product), % ([2]; exposure 120 min) [%] | Total degradation impurities ([3]; 1 week) | further results |
| --- | --- | --- | --- | --- | --- | --- | --- | --- | --- | --- | --- | --- |
| vinorelbine monotartrate [amorphous vinorelbine monotartrate] |  |  |  |  |  |  |  |  |  |  |  | Degradation products (%) 3,6-epoxy vinorelbine ([1]; 15 days): 0.13%; Degradation products (%) Total ([1]; 15 days): 1.08%; Degradation products (%) vinorelbine N-oxide ([1]; 15 days): 0.33%; Degradation products (%) 3,6-epoxy vinorelbine ([1]; initial): LT 0.05%; Degradation products (%) Total ([1]; initial): 0.13%; Degradation products (%) vinorelbine N-oxide ([1]; initial): LT 0.05%; stability (in words) ([1]; exposure to elevated temperature and humidity for an extended period): unstable; degradation (in words) ([1]; incubation for two weeks at 40° C.): significant degradation |
| CCC1=C[C@@H]2CN(C1)Cc1c([nH]c3ccccc13)[C@@](C(=O)OC)(c1cc3c(cc1OC)N(C)[C@H]1[C@@](O)(C(=O)OC)[C@H](OC(C)=O)[C@]4(CC)C=CCN5CC[C@]31[C@@H]54)C2.O=C(O)C(O)C(O)C(=O)O.O=C(O)C(O)C(O)C(=O)O [vinorelbine bitartrate, reference compound] | 0.05 | 0.10 | 0.16 | 0.10 | 0.24 | 0.16 | 0.35 | 0.20 | 0.72 | 0.27 | 9.8% |  |
| vinorelbine monotartrate acetone solvate |  |  |  |  |  |  |  |  |  |  | LT 0.05% | degradation (in words) ([1]; six months storage at 5° C.+3° C.): almost no degradation; degradation (in words) ([1]; six months storage at 25° C.±2° C.): almost no degradation; degradation (in words) ([1]; two months storage at 40° C.): only minimal degradation; Total degradation impurities ([3]; 3 weeks): 0.08%; Total degradation impurities ([3]; 8 weeks): 0.24%; chemical degradation (in words) ([3]; one week storage at 60° C.): didn't show any chemical degradation |
| vinorelbine monotartrate hydrate | 0.03 | 0.10 | 0.08 | 0.10 | 0.14 | 0.10 | 0.28 | 0.10 | 0.44 | 0.17 |  | overall accumulation of degradation impurities ([1]; after 6 months at 25° C.): ≤ 0.02%; overall accumulation of degradation impurities ([1]; after 6 months at 40° C.): ≤ 0.15%; thermostability, degradation ([3]; one week storage at 60° C.): less than 0.10% |
